{"source": "patent US7476670B2", "about": "“Purine derivatives, method for preparing, pharmaceutical compositions and novel use” (Aventis Pharma S.A., priority 2003, dated 2009)", "key": {"CaCiv1": {"molecular_target": "CaCiv1 (Candida albicans, UniProt A0A1D8PH53)", "sequence (A0A1D8PH53 entry or part of it)": "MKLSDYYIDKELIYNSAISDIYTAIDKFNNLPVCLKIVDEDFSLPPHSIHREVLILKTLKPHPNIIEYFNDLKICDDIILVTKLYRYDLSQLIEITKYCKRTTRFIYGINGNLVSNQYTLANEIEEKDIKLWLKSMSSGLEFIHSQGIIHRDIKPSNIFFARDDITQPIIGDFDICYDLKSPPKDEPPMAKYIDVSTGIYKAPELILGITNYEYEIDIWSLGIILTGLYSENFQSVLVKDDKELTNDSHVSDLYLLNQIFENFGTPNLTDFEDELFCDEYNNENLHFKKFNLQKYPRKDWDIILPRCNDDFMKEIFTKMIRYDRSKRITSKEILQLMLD", "assay": "Assay for inhibition of CIV-CDK (CIV1) activity", "type": "biochemical", "conditions": "CaCiv1 with Cdk2 substrate, [33P]ATP, 30 min ambient temperature; read-out: IC50 as micromolar", "from_the_text": "1) Assay for Inhibition of CIV-CDK (CIV1) Activity\na) Preparation of the Reagents"}, "SRC kinase": {"molecular_target": "T1, SRC kinase (Homo sapiens, UniProt P12931)", "T1 construct": "purchased Upstate Biotechnology 14-117", "T1 sequence (P12931 whole entry)": "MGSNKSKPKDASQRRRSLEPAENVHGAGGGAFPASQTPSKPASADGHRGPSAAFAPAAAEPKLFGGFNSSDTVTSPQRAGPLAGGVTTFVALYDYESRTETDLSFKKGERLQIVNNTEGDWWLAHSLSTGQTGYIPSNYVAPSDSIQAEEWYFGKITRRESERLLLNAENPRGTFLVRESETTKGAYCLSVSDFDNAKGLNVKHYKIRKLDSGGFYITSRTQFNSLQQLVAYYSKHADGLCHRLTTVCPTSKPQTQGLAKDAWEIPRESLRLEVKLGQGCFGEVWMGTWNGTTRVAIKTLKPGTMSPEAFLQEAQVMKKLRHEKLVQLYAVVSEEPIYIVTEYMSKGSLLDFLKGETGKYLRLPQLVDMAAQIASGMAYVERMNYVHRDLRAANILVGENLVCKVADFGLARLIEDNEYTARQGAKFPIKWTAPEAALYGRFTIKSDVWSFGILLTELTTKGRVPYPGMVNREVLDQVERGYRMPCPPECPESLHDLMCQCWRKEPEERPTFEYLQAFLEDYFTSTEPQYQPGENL", "assay": "Assay for inhibition of SRC kinase activity", "type": "biochemical", "conditions": "fluorescence polarization, read-out: percentage inhibition at 20 μM", "method": "2) Assay for Inhibition of SRC Kinase Activity\nThe inhibition is determined by fluorescence polarization, the […] kinase phosphorylates a peptide detected by adding an anti-phosphopeptide antibody coupled to a fluorescent label.\nThe assay is carried out in a final volume of 50 μl; all the reagents are prepared in a buffer: • 25 mM HEPES/NaOH pH 7.6 • 5 mM MgCl2 • 2 mM MnCl2 • 50 μM Na2VO4 5 μl of the 10-times concentrated inhibitor are added to 25 μl of enzyme (12 U/ml final concentration), (Upstate Biotechnology ref 14-117). After incubation for 5 minutes at ambient temperature, 10 μl of PolyGluTyr 4/1 (150 ng/ml final concentration) and 10 μl of ATP (5 μM final concentration) are added. The detection is carried out after incubation for 20 minutes at ambient temperature. • Results obtained expressed as percentage inhibition at 20 μM • Example 8 98% • Example 15 99% • Example 20 99% • Example 24 99% • Example 27 95% • Example 30 99% • Example 32 100% • Example 38 95% 3) Assay for Inhibition of CDK2 Activity"}, "ZAP kinase": {"molecular_target": "T2, ZAP kinase (Homo sapiens, UniProt P43403)", "T2 construct": "purchased Panvera P2782", "T2 sequence (P43403 1-619)": "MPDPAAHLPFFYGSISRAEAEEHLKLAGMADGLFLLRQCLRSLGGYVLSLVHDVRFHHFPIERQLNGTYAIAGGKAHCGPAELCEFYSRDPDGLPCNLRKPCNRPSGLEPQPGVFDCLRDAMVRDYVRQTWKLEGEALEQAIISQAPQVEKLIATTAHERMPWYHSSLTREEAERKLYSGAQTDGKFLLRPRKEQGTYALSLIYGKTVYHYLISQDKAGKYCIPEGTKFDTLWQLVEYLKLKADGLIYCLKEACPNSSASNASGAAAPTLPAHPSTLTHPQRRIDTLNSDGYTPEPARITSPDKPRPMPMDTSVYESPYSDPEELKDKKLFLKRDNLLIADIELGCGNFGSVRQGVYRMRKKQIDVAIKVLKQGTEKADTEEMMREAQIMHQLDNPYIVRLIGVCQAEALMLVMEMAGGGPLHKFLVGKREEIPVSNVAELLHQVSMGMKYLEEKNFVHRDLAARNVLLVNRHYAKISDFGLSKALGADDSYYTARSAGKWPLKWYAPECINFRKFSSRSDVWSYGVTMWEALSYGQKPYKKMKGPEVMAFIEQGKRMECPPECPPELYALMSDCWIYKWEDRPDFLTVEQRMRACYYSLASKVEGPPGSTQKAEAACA", "assay": "Assay for inhibition of ZAP kinase activity", "type": "biochemical", "conditions": "fluorescence polarization, read-out: percentage inhibition at 20 μM", "method": "The inhibition of the kinase activity is determined by fluorescence polarization, the ZAP kinase phosphorylates a peptide detected by adding an anti-phosphopeptide antibody coupled to a fluorescent label.\nThe assay is carried out in a final volume of 50 μl; all the reagents are prepared in a buffer: • 20 mM Tris/HCl pH 7.7 • 7 mM MnCl2 • 50 μM Na2VO4 5 μl of the 10-times concentrated inhibitor are added to 25 μl of enzyme (0.7 μg/ml final concentration) (Panvera ref P2782). After incubation for 5 minutes at ambient temperature, 10 μl of PolyGT (300 ng/ml final concentration) and 10 μl of ATP (0.25 μM final concentration) are added. The detection is carried out after incubation for 15 minutes at ambient temperature. • Results obtained expressed as percentage inhibition at 20 μM • Example 8 98% • Example 20 95% • Example 24 96% 7) Assay for Inhibition of Casein Kinase II Activity"}, "EGF tyr Kinase": {"molecular_target": "T3, EGF tyr Kinase (Homo sapiens, UniProt P00533)", "T3 construct": "purchased Tebu SE-124", "T3 sequence (P00533 25-1210)": "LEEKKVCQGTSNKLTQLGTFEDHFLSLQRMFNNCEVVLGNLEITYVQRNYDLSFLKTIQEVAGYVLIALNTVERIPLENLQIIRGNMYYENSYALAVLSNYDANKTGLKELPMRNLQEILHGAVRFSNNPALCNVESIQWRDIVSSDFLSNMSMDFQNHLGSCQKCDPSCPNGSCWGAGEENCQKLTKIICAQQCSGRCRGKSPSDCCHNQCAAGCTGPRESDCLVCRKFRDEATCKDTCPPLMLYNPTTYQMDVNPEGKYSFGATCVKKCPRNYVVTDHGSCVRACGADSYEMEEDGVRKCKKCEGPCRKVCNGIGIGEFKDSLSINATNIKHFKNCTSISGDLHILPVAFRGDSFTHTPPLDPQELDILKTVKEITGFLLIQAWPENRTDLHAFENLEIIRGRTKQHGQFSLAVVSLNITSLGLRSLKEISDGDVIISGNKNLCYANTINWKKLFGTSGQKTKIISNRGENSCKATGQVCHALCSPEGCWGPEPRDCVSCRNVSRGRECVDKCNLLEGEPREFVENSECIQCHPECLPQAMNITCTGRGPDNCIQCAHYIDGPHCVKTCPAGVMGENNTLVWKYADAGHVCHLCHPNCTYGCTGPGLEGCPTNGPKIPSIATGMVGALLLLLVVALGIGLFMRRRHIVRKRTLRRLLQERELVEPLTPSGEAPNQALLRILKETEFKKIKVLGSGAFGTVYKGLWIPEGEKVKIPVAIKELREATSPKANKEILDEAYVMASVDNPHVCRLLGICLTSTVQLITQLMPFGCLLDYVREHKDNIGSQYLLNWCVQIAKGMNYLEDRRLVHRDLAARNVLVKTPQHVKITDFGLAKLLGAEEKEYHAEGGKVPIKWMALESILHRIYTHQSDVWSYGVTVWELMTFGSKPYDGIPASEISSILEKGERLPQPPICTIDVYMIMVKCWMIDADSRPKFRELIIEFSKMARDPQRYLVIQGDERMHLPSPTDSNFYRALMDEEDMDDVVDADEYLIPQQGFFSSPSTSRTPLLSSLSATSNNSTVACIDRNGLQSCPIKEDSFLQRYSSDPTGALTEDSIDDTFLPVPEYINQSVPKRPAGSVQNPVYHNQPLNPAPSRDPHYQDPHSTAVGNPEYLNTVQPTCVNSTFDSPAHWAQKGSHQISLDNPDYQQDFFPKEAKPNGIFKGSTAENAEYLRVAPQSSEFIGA", "assay": "Assay for inhibition of EGF tyr kinase activity", "type": "biochemical", "conditions": "[33P]ATP, read-out: percentage inhibition at 20 μM", "method": "The inhibition of the kinase activity is determined by measuring the phosphorylation of its substrate peptide.\nThe assay is carried out in a final volume of 100 μl.\nThe incubation buffer is as follows:\n• 5 mM Hepes/Tris pH 7.4 • 2% Glycerol • 0.2% triton X100 10 μl of the 10-times concentrated inhibitor are added to 20 μl of incubation buffer containing 1 U/μl final concentration of the enzyme (Tebu, SE-124); 30 μl of incubation buffer containing 0.43 mg/ml final concentration of peptide substrate are then added along with 20 μl of incubation buffer containing 0.4 μM of enzyme and, finally, 20 μl of 6 mM tris/HCl pH 7.4, 15 mM MgCl2 buffer containing 10 μM ATP and radiolabeled ATP, [^33P]ATP (0.25 μCi), are added. The reaction is stopped after incubation for 60 minutes at 30° C. • Results obtained expressed as percentage inhibition at 20 μM • Example 20 100% 10) Assay for Inhibition of AKT Activity"}, "FAK": {"molecular_target": "FAK (Homo sapiens, UniProt Q05397)", "sequence (Q05397 whole entry, species assumed)": "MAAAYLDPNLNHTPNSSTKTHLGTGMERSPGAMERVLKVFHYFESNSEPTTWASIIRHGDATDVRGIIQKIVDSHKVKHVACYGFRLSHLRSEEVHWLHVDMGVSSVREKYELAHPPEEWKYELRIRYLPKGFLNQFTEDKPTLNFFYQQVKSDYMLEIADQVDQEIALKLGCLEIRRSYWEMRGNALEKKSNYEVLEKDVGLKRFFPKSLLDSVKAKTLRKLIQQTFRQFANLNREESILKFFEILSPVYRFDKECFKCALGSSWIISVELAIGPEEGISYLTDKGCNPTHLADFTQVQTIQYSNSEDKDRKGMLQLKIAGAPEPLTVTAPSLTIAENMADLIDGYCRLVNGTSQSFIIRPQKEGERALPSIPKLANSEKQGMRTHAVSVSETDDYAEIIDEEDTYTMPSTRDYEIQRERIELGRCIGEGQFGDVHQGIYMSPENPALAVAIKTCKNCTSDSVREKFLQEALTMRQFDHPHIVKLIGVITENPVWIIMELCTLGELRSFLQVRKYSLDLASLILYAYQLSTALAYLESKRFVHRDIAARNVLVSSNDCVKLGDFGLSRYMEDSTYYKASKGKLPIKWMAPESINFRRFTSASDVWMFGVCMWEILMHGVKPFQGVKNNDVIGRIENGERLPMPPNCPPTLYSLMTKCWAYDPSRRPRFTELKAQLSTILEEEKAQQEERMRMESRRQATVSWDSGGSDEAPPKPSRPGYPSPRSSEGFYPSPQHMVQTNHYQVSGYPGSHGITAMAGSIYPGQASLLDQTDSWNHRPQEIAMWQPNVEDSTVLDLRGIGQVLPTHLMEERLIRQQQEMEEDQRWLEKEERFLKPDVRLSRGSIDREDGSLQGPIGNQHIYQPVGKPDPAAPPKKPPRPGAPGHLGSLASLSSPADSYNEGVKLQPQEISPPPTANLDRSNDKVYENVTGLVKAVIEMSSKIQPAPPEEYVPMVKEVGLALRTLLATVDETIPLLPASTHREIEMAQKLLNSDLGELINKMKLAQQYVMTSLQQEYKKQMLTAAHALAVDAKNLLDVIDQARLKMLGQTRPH", "assay": "Assay for inhibition of FAK activity (autophosphorylation)", "type": "biochemical", "conditions": "fluorescence polarization, ATP 1 μM; read-out: IC50s expressed as micromolar", "method": "The inhibition of the kinase activity is determined by fluorescence polarization, the autophosphorylation of FAK is detected by adding an anti-phosphoprotein antibody coupled to a fluorescent label.\nThe assay is carried out in a final volume of 30 μl; all the reagents are prepared in a buffer: • 50 mM HEPES pH 7.5 • 0.03% triton X100 • 10 mM MgCl2 • 5% Glycerol • 1 mM DTT 10 μl of the 10-times concentrated inhibitor are added to 5 μl of enzyme (100 ng final concentration), and 5 μl of incubation buffer and 10 μl of ATP (1 μM final concentration) are added."}, "Aspergillus fumigatus": {"test_system": "Aspergillus fumigatus", "assay": "Minimum inhibitory concentration in liquid medium, micro method (NCCLS M27-A)", "type": "cell-based", "conditions": "at least 80% inhibition of growth, read after 48-72 h at 37° C., RPMI 1640", "method": "(§1) The assay is carried out in a final volume of 40 μl; all the reagents are prepared in a buffer: • 50 mM HEPES pH 7.5 • 0.03% triton X100 • 10 mM MgCl2 • 5% Glycerol • 1 mM DTT 10 μl of the 10-times concentrated inhibitor are added to 5 μl of enzyme (75 ng final concentration), and 5 μl of peptide (1 μM final concentration), then 2.5 μl of incubation buffer containing 40 μM ATP and 2.5 μl of radiolabeled ATP, [^33P]ATP (500 nCi), are added. After incubation for 15 minutes at ambient temperature, 10 μl of incubation buffer containing 192 nM of substrate. […] Reference method for broth dilution antifungal susceptibility testing of yeasts. Approved Standard M27-A. NCCLS, Villanova, Pa.); the minimum concentration with which a visible decrease is observed in the cloudiness of the cell growth (at least 80% compared to a control without product) is the Minimum Inhibitory Concentration (MIC) of the antifungal agent with respect to the strain tested.\n(§2) RPMI 1640 medium (liquid) without L-glutamine is supplemented with L-glutamine (0.3 g/l or 10.5 ml of a solution at 200 mM) and buffered with 34.54 g/l (0.165 M) of morpholinepropanesulfonic acid (MOPS). The medium is sterilized by filtration. 100 μl of RPMI medium are distributed into each well of a 96-well plate. The appropriate volume. of the antifungal solution is distributed in the first column of the microplate and supplemented with 200 μl of medium. Doubling dilutions are made so as to establish a range of 11 concentrations in each line of the microplate. The 12th well of each row will serve as a growth control. The cell suspension is prepared from a culture (liquid or agar) or from a frozen vial, and is diluted in RPMI medium so as to obtain a cell suspension at 5×10^3−2×10^4 cells/ml. 100 μl of the cell suspension are distributed in the microplate. For all species of Candida, the MIC is read after 24-48 h, and for Cryptococcus and Aspergillus after 48-72 h, of incubation at 37° C. in a normal atmosphere. The MIC is read by visual reading, determining the well which contains the lowest dose of antifungal agent which causes at least 80% inhibition of the growth of the fungus."}, "Candida albicans": {"test_system": "Candida albicans", "assay": "Minimum inhibitory concentration in liquid medium, micro method (NCCLS M27-A)", "type": "cell-based", "conditions": "read-out: MIC Candida albicans", "method": "as §1, §2"}, "Candida glabrata": {"test_system": "Candida glabrata", "assay": "Minimum inhibitory concentration in liquid medium, micro method (NCCLS M27-A)", "type": "cell-based", "conditions": "Nakaseomyces glabratus, read-out: MIC Candida glabrata", "method": "as §1, §2"}}, "data": [{"smiles": "N[C@H]1CC[C@H](Nc2nc(-n3cnc4cc(OCc5ccccc5)ccc43)c3nc[nH]c3n2)CC1", "note": "[Example 20, Trans-N-[6-[5-(phenylmethoxy)-1H-benzimidazol-1-yl]-9H-purin-2-yl]-1,4-cyclohexanediamine]", "values": [{"measurement": "IC50", "setting": "CaCiv1", "value": 1.7, "unit": "µM"}, {"measurement": "inhibition at 20 µM", "setting": "SRC kinase", "value": 99, "unit": "%"}, {"measurement": "inhibition at 20 µM", "setting": "ZAP kinase", "value": 95, "unit": "%"}, {"measurement": "inhibition at 20 µM", "setting": "EGF tyr Kinase", "value": 100, "unit": "%"}, {"measurement": "IC50", "setting": "FAK", "value": 1.6, "unit": "µM"}, {"measurement": "MIC Aspergillus fumigatus", "setting": "Aspergillus fumigatus", "value": 32, "unit": "µg/mL"}, {"measurement": "MIC", "setting": "Candida albicans", "value": 32, "unit": "µg/mL"}, {"measurement": "MIC", "setting": "Candida glabrata", "value": 16, "unit": "µg/mL"}]}]}
